Columns and labels:
c-Raf-1 = c-Raf-1 (Homo sapiens, UniProt P04049); test: c-Raf-1 kinase activity assay; format: biochemical; settings: under the test conditions employed; read-out: IC50 toward kinase c-Raf-1
B-Raf V600E = B-Raf V600E (Homo sapiens, UniProt P15056, V600E); test: B-Raf V600E kinase activity assay; format: biochemical; settings: under the test conditions employed; read-out: IC50 toward kinase B-Raf V600E
B-Raf = B-Raf (Homo sapiens, UniProt P15056); test: B-Raf kinase activity assay; format: biochemical; settings: under the test conditions employed; read-out: IC50 toward kinase B-Raf
Kit = molecular target: T1, Kit (Homo sapiens, UniProt P10721); test: c-kit biochemical assay (AlphaScreen or 33P-ATP); settings: under the test conditions employed; read-out: IC50 toward kinase Kit
T1 construct: P1332.N6 BI PTP KIT M552-K948-X COD; made in house; host or cells: E. coli BL21(DE3)RIL, co-expressed with PTP1B
How it was run: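 Kinase activity read by AlphaScreen or 33P-ATP incorporation, with c-kit enzyme at 1 ng per sample. The enzyme was either commercial or a recombinant human kit construct made from a gene-synthesized coding sequence.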

FGFR = FGFR (Homo sapiens, UniProt P11362); test: FGFR kinase activity assay; format: biochemical; settings: under the test conditions employed; read-out: IC50 toward kinase FGFR
Fms = molecular target: T2, Fms (Homo sapiens, UniProt P07333); test: Fms biochemical assay (AlphaScreen or 33P-ATP); settings: under the test conditions employed; read-out: IC50 toward kinase Fms
T2 construct: purchased Upstate Biotech 14-551
Source text: Each sample was at 5% DMSO.

Flt1 = Flt1 (Homo sapiens, UniProt P17948); test: Flt1 kinase activity assay; format: biochemical; settings: under the test conditions employed; read-out: IC50 toward kinase Flt1
Btk = Btk (Homo sapiens, UniProt Q06187); test: Btk kinase activity assay; format: biochemical; settings: under the test conditions employed; read-out: IC50 toward kinase Btk
Kdr = Kdr (Homo sapiens, UniProt P35968); test: Kdr kinase activity assay; format: biochemical; settings: under the test conditions employed; read-out: IC50 toward kinase Kdr
Fak = Fak (Homo sapiens, UniProt Q05397); test: Fak kinase activity assay; format: biochemical; settings: under the test conditions employed; read-out: IC50 toward kinase Fak
HGK = HGK (Homo sapiens, UniProt O95819); test: HGK (MAP4K4) biochemical assay (AlphaScreen); settings: under the test conditions employed; read-out: IC50 toward kinase HGK
How it was run: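 AlphaScreen kinase assay with 0.5 ng MAP4K4 per sample and 10 nM biotin-ERM substrate, reacted 40 min at room temperature. Stopped with EDTA buffer containing phospho-ERM antibody (1:1000) plus donor and protein A acceptor beads (1 μg/ml final); signal tracks substrate phosphorylation.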

TrkA = molecular target: T3, TrkA (Homo sapiens, UniProt P04629); test: TrkA biochemical assay (AlphaScreen); settings: under the test conditions employed; read-out: IC50 toward kinase TrkA
T3 construct: purchased Upstate Biotech 14-571
Method: Compounds tested were dissolved in DMSO (1 μL) and added to a white 384-well plate (Costar #3705). […] Each sample was at 5% DMSO. The plate was then incubated for 40 minutes at room temperature.

B-Raf V600E/T529I = B-Raf V600E/T529I (Homo sapiens, UniProt P15056, T529I/V600E); test: B-Raf V600E/T529I kinase activity assay; format: biochemical; settings: under the test conditions employed; read-out: IC50 toward kinase B-Raf V600E/T529I
Src = Src (Homo sapiens, UniProt P12931); test: Src kinase activity assay; format: biochemical; settings: under the test conditions employed; read-out: IC50 toward kinase Src
Sequence of Src (P12931 whole entry): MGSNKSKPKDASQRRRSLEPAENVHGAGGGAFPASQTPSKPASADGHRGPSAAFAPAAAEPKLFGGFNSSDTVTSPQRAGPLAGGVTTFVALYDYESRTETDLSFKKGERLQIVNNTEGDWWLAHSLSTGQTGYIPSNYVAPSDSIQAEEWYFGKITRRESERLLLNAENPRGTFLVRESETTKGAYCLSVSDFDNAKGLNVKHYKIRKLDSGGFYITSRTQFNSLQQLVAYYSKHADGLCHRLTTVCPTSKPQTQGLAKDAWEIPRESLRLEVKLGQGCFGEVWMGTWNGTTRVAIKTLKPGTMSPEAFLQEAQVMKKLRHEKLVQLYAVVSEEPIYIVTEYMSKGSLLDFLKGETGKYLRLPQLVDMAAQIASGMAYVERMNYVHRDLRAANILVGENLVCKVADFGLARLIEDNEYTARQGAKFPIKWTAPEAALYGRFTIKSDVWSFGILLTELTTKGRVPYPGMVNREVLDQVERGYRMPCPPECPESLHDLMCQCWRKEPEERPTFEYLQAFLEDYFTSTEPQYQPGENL

T1 sequence (P10721 552-948): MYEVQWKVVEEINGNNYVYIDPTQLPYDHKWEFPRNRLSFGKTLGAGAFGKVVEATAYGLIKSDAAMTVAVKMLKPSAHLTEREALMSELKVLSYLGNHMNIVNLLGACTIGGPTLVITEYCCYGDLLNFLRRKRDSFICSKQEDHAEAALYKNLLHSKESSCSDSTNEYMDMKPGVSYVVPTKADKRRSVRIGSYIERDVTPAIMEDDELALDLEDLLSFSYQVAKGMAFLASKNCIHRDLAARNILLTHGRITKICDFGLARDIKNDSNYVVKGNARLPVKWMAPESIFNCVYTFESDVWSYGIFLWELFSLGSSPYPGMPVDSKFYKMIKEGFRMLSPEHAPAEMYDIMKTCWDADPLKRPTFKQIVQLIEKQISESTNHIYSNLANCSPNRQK
Sequence of Btk (Q06187 whole entry): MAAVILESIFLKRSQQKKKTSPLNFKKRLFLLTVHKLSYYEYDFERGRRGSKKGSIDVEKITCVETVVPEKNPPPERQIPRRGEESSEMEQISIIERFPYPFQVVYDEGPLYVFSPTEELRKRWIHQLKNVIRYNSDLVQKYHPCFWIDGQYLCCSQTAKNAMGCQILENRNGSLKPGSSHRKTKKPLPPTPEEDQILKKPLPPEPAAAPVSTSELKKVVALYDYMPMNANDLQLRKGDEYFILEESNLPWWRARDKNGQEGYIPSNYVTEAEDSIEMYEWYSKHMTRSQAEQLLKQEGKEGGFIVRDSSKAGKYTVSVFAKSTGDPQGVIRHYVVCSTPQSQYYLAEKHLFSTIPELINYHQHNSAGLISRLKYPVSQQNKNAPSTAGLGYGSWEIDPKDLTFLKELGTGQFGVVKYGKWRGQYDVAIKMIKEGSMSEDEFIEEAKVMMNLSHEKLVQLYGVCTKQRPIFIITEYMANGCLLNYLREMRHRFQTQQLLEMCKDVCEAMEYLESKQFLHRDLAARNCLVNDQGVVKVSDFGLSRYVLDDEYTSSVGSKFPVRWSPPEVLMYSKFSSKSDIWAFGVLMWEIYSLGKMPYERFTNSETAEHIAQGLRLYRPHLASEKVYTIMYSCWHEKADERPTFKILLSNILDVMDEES
Sequence of HGK (O95819 whole entry): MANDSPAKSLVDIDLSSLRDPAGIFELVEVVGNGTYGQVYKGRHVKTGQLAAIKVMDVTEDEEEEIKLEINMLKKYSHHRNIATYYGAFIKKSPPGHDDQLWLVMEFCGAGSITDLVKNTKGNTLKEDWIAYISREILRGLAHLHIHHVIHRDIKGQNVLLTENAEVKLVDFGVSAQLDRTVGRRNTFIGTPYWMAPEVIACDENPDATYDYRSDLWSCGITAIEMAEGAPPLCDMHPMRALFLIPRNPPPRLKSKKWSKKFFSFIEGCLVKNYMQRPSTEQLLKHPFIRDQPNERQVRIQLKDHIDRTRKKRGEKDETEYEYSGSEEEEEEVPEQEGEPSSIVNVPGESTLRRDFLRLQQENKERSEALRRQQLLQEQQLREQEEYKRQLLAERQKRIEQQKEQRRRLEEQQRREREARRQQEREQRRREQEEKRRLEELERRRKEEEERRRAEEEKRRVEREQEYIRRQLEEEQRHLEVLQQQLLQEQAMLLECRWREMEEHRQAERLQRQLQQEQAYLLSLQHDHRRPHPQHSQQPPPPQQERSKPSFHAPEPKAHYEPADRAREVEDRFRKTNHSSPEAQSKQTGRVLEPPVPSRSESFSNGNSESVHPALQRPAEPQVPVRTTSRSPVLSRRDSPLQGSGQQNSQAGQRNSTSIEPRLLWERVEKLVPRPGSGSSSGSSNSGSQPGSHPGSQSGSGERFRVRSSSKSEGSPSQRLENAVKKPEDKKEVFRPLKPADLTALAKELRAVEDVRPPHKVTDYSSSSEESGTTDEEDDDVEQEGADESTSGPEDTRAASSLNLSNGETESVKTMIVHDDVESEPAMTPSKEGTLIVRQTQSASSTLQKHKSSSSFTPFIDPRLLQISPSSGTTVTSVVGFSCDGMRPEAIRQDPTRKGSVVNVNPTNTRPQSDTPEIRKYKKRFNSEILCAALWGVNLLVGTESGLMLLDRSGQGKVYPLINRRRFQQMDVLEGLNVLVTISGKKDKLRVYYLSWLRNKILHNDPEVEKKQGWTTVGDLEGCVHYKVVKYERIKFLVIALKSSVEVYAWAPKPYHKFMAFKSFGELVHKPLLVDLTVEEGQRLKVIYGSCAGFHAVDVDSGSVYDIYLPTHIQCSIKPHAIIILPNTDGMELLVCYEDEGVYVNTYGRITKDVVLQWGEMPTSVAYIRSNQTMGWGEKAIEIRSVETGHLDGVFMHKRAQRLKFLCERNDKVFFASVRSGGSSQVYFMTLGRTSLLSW
Sequence of c-Raf-1 (P04049 whole entry): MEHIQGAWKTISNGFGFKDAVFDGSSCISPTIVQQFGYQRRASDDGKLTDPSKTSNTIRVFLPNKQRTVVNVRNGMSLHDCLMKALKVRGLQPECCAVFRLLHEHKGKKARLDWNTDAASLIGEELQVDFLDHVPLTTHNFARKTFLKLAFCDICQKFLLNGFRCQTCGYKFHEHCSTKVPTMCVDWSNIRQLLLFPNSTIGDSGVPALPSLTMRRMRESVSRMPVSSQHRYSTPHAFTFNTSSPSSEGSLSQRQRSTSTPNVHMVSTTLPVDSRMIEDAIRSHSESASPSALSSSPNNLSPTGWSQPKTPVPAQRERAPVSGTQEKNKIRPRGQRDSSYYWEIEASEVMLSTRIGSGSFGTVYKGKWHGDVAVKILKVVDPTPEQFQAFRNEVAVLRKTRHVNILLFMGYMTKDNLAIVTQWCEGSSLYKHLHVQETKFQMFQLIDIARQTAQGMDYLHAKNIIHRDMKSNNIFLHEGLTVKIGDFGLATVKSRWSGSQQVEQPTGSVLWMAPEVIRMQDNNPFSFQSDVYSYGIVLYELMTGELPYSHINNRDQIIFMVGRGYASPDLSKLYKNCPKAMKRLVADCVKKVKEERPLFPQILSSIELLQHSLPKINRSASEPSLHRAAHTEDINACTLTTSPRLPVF
Sequence of Kdr (P35968 20-1356): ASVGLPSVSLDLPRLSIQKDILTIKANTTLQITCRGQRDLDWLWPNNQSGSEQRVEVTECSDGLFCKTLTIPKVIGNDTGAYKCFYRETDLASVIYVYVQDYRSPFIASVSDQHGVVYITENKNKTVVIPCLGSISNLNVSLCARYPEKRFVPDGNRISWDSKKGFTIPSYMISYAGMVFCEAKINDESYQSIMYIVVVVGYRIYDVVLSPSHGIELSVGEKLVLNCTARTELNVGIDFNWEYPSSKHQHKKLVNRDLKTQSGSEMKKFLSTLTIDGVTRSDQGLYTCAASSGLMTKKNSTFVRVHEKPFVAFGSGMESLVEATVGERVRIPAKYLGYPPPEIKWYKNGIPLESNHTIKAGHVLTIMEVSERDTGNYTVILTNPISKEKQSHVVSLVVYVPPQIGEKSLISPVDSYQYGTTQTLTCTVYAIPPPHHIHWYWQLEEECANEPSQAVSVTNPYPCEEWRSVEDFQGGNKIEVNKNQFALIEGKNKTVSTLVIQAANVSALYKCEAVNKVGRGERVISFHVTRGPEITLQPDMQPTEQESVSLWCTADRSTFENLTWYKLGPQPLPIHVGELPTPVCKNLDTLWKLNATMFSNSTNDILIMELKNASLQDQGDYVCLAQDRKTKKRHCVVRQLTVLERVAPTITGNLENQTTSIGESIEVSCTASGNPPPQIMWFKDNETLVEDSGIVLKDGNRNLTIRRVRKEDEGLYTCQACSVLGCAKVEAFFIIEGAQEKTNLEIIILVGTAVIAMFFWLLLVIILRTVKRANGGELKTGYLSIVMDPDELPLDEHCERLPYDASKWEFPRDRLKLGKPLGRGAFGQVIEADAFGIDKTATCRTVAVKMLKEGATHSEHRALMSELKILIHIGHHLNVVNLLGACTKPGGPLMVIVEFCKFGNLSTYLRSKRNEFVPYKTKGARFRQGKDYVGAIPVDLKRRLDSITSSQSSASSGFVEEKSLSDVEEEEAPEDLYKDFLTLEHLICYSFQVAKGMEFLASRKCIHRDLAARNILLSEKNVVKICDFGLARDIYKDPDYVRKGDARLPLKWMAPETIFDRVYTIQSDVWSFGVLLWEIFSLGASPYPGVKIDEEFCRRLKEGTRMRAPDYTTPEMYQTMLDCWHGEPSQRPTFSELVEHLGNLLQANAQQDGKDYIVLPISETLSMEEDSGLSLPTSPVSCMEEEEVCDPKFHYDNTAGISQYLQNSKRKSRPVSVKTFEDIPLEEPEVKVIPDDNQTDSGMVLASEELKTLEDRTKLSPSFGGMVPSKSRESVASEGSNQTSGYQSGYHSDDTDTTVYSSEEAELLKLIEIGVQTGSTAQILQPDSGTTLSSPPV

Row | IC50 (c-Raf-1) | IC50 (B-Raf V600E) | IC50 (B-Raf) | IC50 (Kit) | IC50 (FGFR) | IC50 (Fms) | IC50 (Flt1) | IC50 (Btk) | IC50 (Kdr) | IC50 (Fak) | IC50 (HGK) | IC50 (TrkA) | IC50 (B-Raf V600E/T529I) | IC50 (Src) | SMILES
1 | ≤ 10 µM | ≤ 10 µM | ≤ 10 µM | ≤ 10 µM | ≤ 10 µM | ≤ 10 µM |  |  |  |  |  |  |  |  | COCCOc1ccc(F)c(Cc2c[nH]c3ncc(Br)cc23)c1F [P-1454, 5-Bromo-3-[2,6-difluoro-3-(2-methoxy-ethoxy)-benzyl]1H-pyrrolo[2,3-b]pyridine]
2 |  |  |  | ≤ 10 µM |  | ≤ 10 µM | ≤ 10 µM | ≤ 10 µM | ≤ 10 µM |  |  |  |  |  | Cn1cc(-c2cnc3[nH]cc(Cc4cc(F)c(O)cc4F)c3c2)cn1 [P-2161, 2,5-difluoro-4-[5-(1-methyl-1H-pyrazol-4-yl)-1H-pyrrolo[2,3-b]pyridin-3-ylmethyl]-phenol]
3 | ≤ 10 µM | ≤ 10 µM | ≤ 10 µM | ≤ 10 µM | ≤ 10 µM | ≤ 10 µM |  |  |  | ≤ 10 µM |  |  |  |  | Fc1ccc(OCc2ccccc2)c(F)c1Cc1c[nH]c2ncc(-c3cccnc3)cc12 [P-1455, 3-(3-Benzyloxy-2,6-difluoro-benzyl)-5-pyridin-3-yl-1H-pyrrolo[2,3-b]pyridine]
4 |  |  |  |  |  | ≤ 10 µM |  |  |  | ≤ 10 µM | ≤ 10 µM | ≤ 10 µM |  |  | COc1cc(Cc2c[nH]c3ncc(Br)cc23)c(F)cc1OCc1nc2ccccc2[nH]1 [P-2181, 2-[4-(5-Bromo-1H-pyrrolo[2,3-b]pyridin-3-ylmethyl)-5-fluoro-2-methoxy-phenoxymethyl]-1H-benzoimidazole]
5 | ≤ 10 µM |  |  |  | ≤ 10 µM | ≤ 10 µM |  |  | ≤ 10 µM |  |  |  |  |  | COCCOCCOc1cc(Cl)c(Cc2c[nH]c3ncc(Cl)cc23)cc1F [P-2155, 5-chloro-3-2-chloro-5-fluoro-4-[2-(2-methoxy-ethoxy)-ethoxy]-benzyl-1H-pyrrolo[2,3-b]pyridine]
6 |  |  |  | ≤ 10 µM |  | ≤ 10 µM |  |  | ≤ 10 µM |  |  |  | ≤ 10 µM |  | Fc1cc(Cc2c[nH]c3ncc(Cl)cc23)c(Cl)cc1OCc1cccnc1 [P-2156, 5-Chloro-3-[2-chloro-5-fluoro-4-(pyridin-3-ylmethoxy)-benzyl]-1H-pyrrolo[2,3-b]pyridine]
7 |  |  |  |  |  | ≤ 10 µM |  |  | ≤ 10 µM |  |  |  | ≤ 10 µM |  | Cn1cc(-c2cnc3[nH]cc(Cc4c(Cl)ccc(OCC(F)(F)F)c4Cl)c3c2)cn1 [P-2152, 3-[2,6-Dichloro-3-(2,2,2-trifluoro-ethoxy)-benzyl]-5-(1-methyl-1H-pyrazol-4-yl)-1H-pyrrolo[2,3-b]pyridine]
8 |  | ≤ 10 µM |  | ≤ 10 µM |  | ≤ 10 µM |  |  |  | ≤ 10 µM |  |  |  |  | COc1cc(OCc2ccc(Cl)cc2)ccc1Cc1c[nH]c2ncccc12 [P-1450, 3-[4-(4-chloro-benzyloxy)-2-methoxy-benzyl]-1H-pyrrolo[2,3-b]pyridine]
9 | ≤ 10 µM | ≤ 10 µM | ≤ 10 µM | ≤ 10 µM | ≤ 10 µM | ≤ 10 µM |  |  |  | ≤ 10 µM |  |  |  |  | COCCOc1ccc(F)c(C(=O)c2c[nH]c3ncc(Br)cc23)c1F [P-1453, (5-Bromo-1H-pyrrolo[2,3-b]pyridin-3-yl)-[2,6-difluoro-3-(2-methoxy-ethoxy)-phenyl]-methanone]
10 | ≤ 10 µM |  |  |  |  | ≤ 10 µM |  | ≤ 10 µM |  |  |  |  |  |  | CCOc1c(OCc2ccc(N(CC)CC)nc2)cccc1C(=O)c1c[nH]c2ncccc12 [P-2143, [3-(6-Diethylamino-pyridin-3-ylmethoxy)-2-ethoxy-phenyl]-(1H-pyrrolo[2,3-b]pyridin-3-yl)-methanone]
11 | ≤ 10 µM |  |  | ≤ 10 µM |  | ≤ 10 µM | ≤ 10 µM |  | ≤ 10 µM |  | ≤ 10 µM | ≤ 10 µM |  |  | Fc1cc(OCc2nc3ccccc3[nH]2)c(F)cc1Cc1c[nH]c2ncc(Br)cc12 [P-2107, 2-[4-(5-Bromo-1H-pyrrolo[2,3-b]pyridin-3-ylmethyl)-2,5-difluoro-phenoxymethyl]-1H-benzoimidazole]
12 |  |  |  |  |  | ≤ 10 µM | ≤ 10 µM |  | ≤ 10 µM |  |  |  | ≤ 10 µM |  | COc1cnc2[nH]cc(C(=O)c3c(Cl)ccc(OCC(F)(F)F)c3Cl)c2c1 [P-2154, [2,6-Dichloro-3-(2,2,2-trifluoro-ethoxy)-phenyl]-(5-methoxy-1H-pyrrolo[2,3-b]pyridin-3-yl)-methanone]
13 |  |  | ≤ 10 µM | ≤ 10 µM |  | ≤ 10 µM | ≤ 10 µM | ≤ 10 µM | ≤ 10 µM |  |  | ≤ 10 µM |  | ≤ 10 µM | Cn1cc(-c2cnc3[nH]cc(C(=O)c4c(F)ccc(OCC(F)(F)F)c4Cl)c3c2)cn1 [P-2145, [2-Chloro-6-fluoro-3-(2,2,2-trifluoro-ethoxy)-phenyl]-[5-(1-methyl-1H-pyrazol-4-yl)-1H-pyrrolo[2,3-b]pyridin-3-yl]-methanone]
14 |  | ≤ 10 µM |  | ≤ 10 µM |  | ≤ 10 µM |  |  |  | ≤ 10 µM |  |  |  |  | Clc1ccc(COc2ccc(Cc3c[nH]c4ncccc34)cc2Cl)cc1 [P-1449, 3-[3-chloro-4-(4-chloro-benzyloxy)-benzyl]-1H-pyrrolo[2,3-b]pyridine]
15 |  |  |  | ≤ 10 µM |  | ≤ 10 µM | ≤ 10 µM |  | ≤ 10 µM |  |  | ≤ 10 µM |  | ≤ 10 µM | Cn1cc(-c2cnc3[nH]cc(Cc4cc(F)c(OCc5nc6ccccc6[nH]5)cc4F)c3c2)cn1 [P-2108, 2-{2,5-Difluoro-4-[5-(1-methyl-1H-pyrazol-4-yl)-1H-pyrrolo[2,3-b]pyridin-3-ylmethyl]-phenoxymethyl}-1H-benzoimidazole]
16 | ≤ 10 µM | ≤ 10 µM | ≤ 10 µM | ≤ 10 µM |  | ≤ 10 µM | ≤ 10 µM |  | ≤ 10 µM |  | ≤ 10 µM | ≤ 10 µM |  |  | N#Cc1cnc2[nH]cc(Cc3cc(F)c(OCc4nc5ccccc5[nH]4)cc3F)c2c1 [P-2185, 3-[4-(1H-Benzoimidazol-2-ylmethoxy)-2,5-difluoro-benzyl]-1H-pyrrolo[2,3-b]pyridine-5-carbonitrile]
17 |  | ≤ 10 µM | ≤ 10 µM | ≤ 10 µM |  | ≤ 10 µM | ≤ 10 µM | ≤ 10 µM | ≤ 10 µM |  |  |  |  |  | Cc1nc(COc2ccc(F)c(C(=O)c3c[nH]c4ncc(Cl)cc34)c2F)c(C)o1 [P-2164, (5-Chloro-1H-pyrrolo[2,3-b]pyridin-3-yl)-[3-(2,5-dimethyl-oxazol-4-ylmethoxy)-2,6-difluoro-phenyl]-methanone]
18 |  |  |  | ≤ 10 µM |  | ≤ 10 µM | ≤ 10 µM |  | ≤ 10 µM |  |  | ≤ 10 µM |  | ≤ 10 µM | Cn1cc(-c2cnc3[nH]cc(Cc4cc(Cl)c(OCc5nc6ccccc6[nH]5)cc4F)c3c2)cn1 [P-2117, 2-{2-Chloro-5-fluoro-4-[5-(1-methyl-1H-pyrazol-4-yl)-1H-pyrrolo[2,3-b]pyridin-3-ylmethyl]-phenoxymethyl}-1H-benzoimidazole]
19 | ≤ 10 µM | ≤ 10 µM | ≤ 10 µM | ≤ 10 µM |  | ≤ 10 µM | ≤ 10 µM |  |  | ≤ 10 µM |  |  |  | ≤ 10 µM | COc1cc(Cc2c[nH]c3ncccc23)ccc1OCc1ccc(Cl)cc1 [P-1247, 3-(4-(4-chlorobenzyloxy)-3-methoxybenzyl)-1H-pyrrolo[2,3-b]pyridine]
20 |  |  |  |  |  | ≤ 10 µM |  |  | ≤ 10 µM |  |  |  | ≤ 10 µM |  | COc1cc(Cc2c[nH]c3ncccc23)c(Cl)cc1OCc1ccc(Cl)cc1F [P-2166, 3-[2-chloro-4-(4-chloro-2-fluoro-benzyloxy)-5-methoxy-benzyl]-1H-pyrrolo[2,3-b]pyridine]
21 |  |  |  | ≤ 10 µM |  | ≤ 10 µM | ≤ 10 µM |  | ≤ 10 µM |  | ≤ 10 µM | ≤ 10 µM |  | ≤ 10 µM | Cn1cc(-c2cnc3[nH]cc(Cc4cc(F)c(OCc5nc6ccccc6[nH]5)cc4Cl)c3c2)cn1 [P-2109, 2-{5-Chloro-2-fluoro-4-[5-(1-methyl-1H-pyrazol-4-yl)-1H-pyrrolo[2,3-b]pyridin-3-ylmethyl]-phenoxymethyl}-1H-benzoimidazole]

Source: patent US7872018B2, “Compounds and methods for kinase modulation, and indications therefor” (Plexxikon, Inc., priority 2006, dated 2011)
